According to PubChem BioAssay AID256 (DTP/NCI, 2004):
Inconclusive results and toxic doses are left out.

System: CD2F1 mice, L1210 leukemia ip, survival T/C
Experiment: NCI In Vivo Anticancer Drug Screen. Data for tumor model L1210 Leukemia (intraperitoneal) in CD2F1 (CDF1) mice
Conditions: higher = longer survival
Method: The antitumor activity of compounds was measured in mice bearing transplantable tumors. Survival or tumor size were measured and the results are expressed as the measurement made in the treated group (T) divided by the measurement made in the vehicle treated control group (C). The tumor model used in this assay is L1210 Leukemia (intraperitoneal) in CD2F1 (CDF1) mice

[1] = endpoint: mean survival time, dose: 50.0 mg/kg/injection, schedule: Q01DX009 (ip), vehicle: saline
[2] = endpoint: mean survival time, dose: 100.0 mg/kg/injection, schedule: Q01DX001 (ip), vehicle: saline
[3] = endpoint: mean survival time, dose: 100.0 mg/kg/injection, schedule: Q01DX009 (ip), vehicle: saline with Tween-80
[4] = endpoint: mean survival time, dose: 200.0 mg/kg/injection, schedule: Q01DX009 (ip), vehicle: saline with Tween-80
[5] = endpoint: mean survival time, dose: 400.0 mg/kg/injection, schedule: Q01DX009 (ip), vehicle: saline with Tween-80

## COC(OC(CO)C(O)S(=O)(=O)O)C(O)S(=O)(=O)O (stereo not drawn)
endpoint: mean survival time, dose: 50.0 mg/kg/injection, schedule: Q01DX001 (ip), vehicle: saline
  T/C: 103 % of control
[1]
  T/C: 124 % of control
endpoint: mean survival time, dose: 50.0 mg/kg/injection, schedule: Q01DX009 (sc), vehicle: saline
  T/C: 104 % of control
endpoint: mean survival time, dose: 50.0 mg/kg/injection, schedule: Q03HX016 (ip), vehicle: saline
  T/C: 115 % of control
[2]
  T/C: 118 % of control
endpoint: mean survival time, dose: 100.0 mg/kg/injection, schedule: Q01DX009 (oral), vehicle: saline
  T/C: 105 % of control
endpoint: mean survival time, dose: 100.0 mg/kg/injection, schedule: Q01DX009 (sc), vehicle: saline
  T/C: 101 % of control
endpoint: mean survival time, dose: 100.0 mg/kg/injection, schedule: Q03HX008 (ip), vehicle: saline
  T/C: 160 % of control
endpoint: mean survival time, dose: 100.0 mg/kg/injection, schedule: Q03HX016 (ip), vehicle: saline
  T/C: 153 % of control
endpoint: mean survival time, dose: 100.0 mg/kg/injection, schedule: Q08DX002 (ip), vehicle: saline
  T/C: 109 % of control
endpoint: mean survival time, dose: 200.0 mg/kg/injection, schedule: Q01DX009 (oral), vehicle: saline
  T/C: 92 % of control
endpoint: mean survival time, dose: 200.0 mg/kg/injection, schedule: Q01DX009 (sc), vehicle: saline
  T/C: 101 % of control
endpoint: mean survival time, dose: 200.0 mg/kg/injection, schedule: Q08DX002 (ip), vehicle: saline
  T/C: 120 % of control
endpoint: mean survival time, dose: 400.0 mg/kg/injection, schedule: Q01DX009 (ip), vehicle: saline
  T/C: 168 % of control
endpoint: mean survival time, dose: 400.0 mg/kg/injection, schedule: Q01DX009 (oral), vehicle: saline
  T/C: 94 % of control
endpoint: mean survival time, dose: 400.0 mg/kg/injection, schedule: Q01DX009 (sc), vehicle: saline
  T/C: 106 % of control
endpoint: mean survival time, dose: 800.0 mg/kg/injection, schedule: Q01DX009 (oral), vehicle: saline
  T/C: 94 % of control
endpoint: mean survival time, dose: 800.0 mg/kg/injection, schedule: Q04DX003 (ip), vehicle: saline
  T/C: 178 % of control

## CC(=O)C1CCC2C3CC=C4CC(SC(=N)N)CCC4(C)C3CCC12C (stereo not drawn)
endpoint: mean survival time, dose: 75.0 mg/kg/injection, schedule: Q01DX001 (ip), vehicle: steriod suspending solution
  T/C: 102 % of control
endpoint: mean survival time, dose: 150.0 mg/kg/injection, schedule: Q01DX001 (ip), vehicle: steriod suspending solution
  T/C: 104 % of control
endpoint: mean survival time, dose: 300.0 mg/kg/injection, schedule: Q01DX001 (ip), vehicle: steriod suspending solution
  T/C: 91 % of control

## O=CN(Cc1ccccc1)c1cc([N+](=O)[O-])ccc1OCc1ccccc1
[2]
  T/C: 96 % of control
endpoint: mean survival time, dose: 200.0 mg/kg/injection, schedule: Q01DX001 (ip), vehicle: saline
  T/C: 94 % of control
endpoint: mean survival time, dose: 400.0 mg/kg/injection, schedule: Q01DX001 (ip), vehicle: saline
  T/C: 100 % of control

## C#C[C@]1(O)CC[C@H]2[C@@H]3CCc4cc(O)ccc4[C@H]3CC[C@@]21C
endpoint: median survival time, dose: 31.2 mg/kg/injection, schedule: Q01DX009 (ip), vehicle: saline with Tween-80
  T/C: 106 % of control
endpoint: median survival time, dose: 62.5 mg/kg/injection, schedule: Q01DX009 (ip), vehicle: saline with Tween-80
  T/C: 97 % of control
endpoint: median survival time, dose: 125.0 mg/kg/injection, schedule: Q01DX009 (ip), vehicle: saline with Tween-80
  T/C: 97 % of control
endpoint: median survival time, dose: 250.0 mg/kg/injection, schedule: Q01DX009 (ip), vehicle: saline with Tween-80
  T/C: 101 % of control
endpoint: median survival time, dose: 500.0 mg/kg/injection, schedule: Q01DX009 (ip), vehicle: saline with Tween-80
  T/C: 104 % of control

## CCOC(=O)c1c([N+](=O)[O-])cnn1C1OC(COC(C)=O)C(OC(C)=O)C1OC(C)=O (stereo not drawn)
endpoint: median survival time, dose: 8.75 mg/kg/injection, schedule: Q01DX005 (ip), vehicle: distilled water + Tween-80
  T/C: 104 % of control
endpoint: median survival time, dose: 17.5 mg/kg/injection, schedule: Q01DX005 (ip), vehicle: distilled water + Tween-80
  T/C: 107 % of control
endpoint: median survival time, dose: 35.0 mg/kg/injection, schedule: Q01DX005 (ip), vehicle: distilled water + Tween-80
  T/C: 96 % of control
endpoint: median survival time, dose: 70.0 mg/kg/injection, schedule: Q01DX005 (ip), vehicle: distilled water + Tween-80
  T/C: 101 % of control
endpoint: median survival time, dose: 140.0 mg/kg/injection, schedule: Q01DX005 (ip), vehicle: distilled water + Tween-80
  T/C: 101 % of control

## CCCC(C#CCN(C)C)N(C)C (stereo not drawn)
endpoint: mean survival time, dose: 12.5 mg/kg/injection, schedule: Q01DX009 (ip), vehicle: saline
  T/C: 97 % of control
endpoint: mean survival time, dose: 25.0 mg/kg/injection, schedule: Q01DX009 (ip), vehicle: saline
  T/C: 97 % of control
[1]
  T/C: 98 % of control

## COc1ccc(Cl)cc1C(c1cc(Cl)ccc1OC)C(Cl)(Cl)Cl
[3]
  T/C: 97 % of control
endpoint: mean survival time, dose: 100.0 mg/kg/injection, schedule: Q04DX003 (ip), vehicle: saline with Tween-80
  T/C: 103 % of control
[4]
  T/C: 109 % of control
endpoint: mean survival time, dose: 200.0 mg/kg/injection, schedule: Q04DX003 (ip), vehicle: saline with Tween-80
  T/C: 103 % of control
[5]
  T/C: 104 % of control
endpoint: mean survival time, dose: 400.0 mg/kg/injection, schedule: Q04DX003 (ip), vehicle: saline with Tween-80
  T/C: 101 % of control

## O=C(O)CCC(Cc1ccccc1)C(=O)O (stereo not drawn)
[3]
  T/C: 97 % of control
[4]
  T/C: 94 % of control
[5]
  T/C: 86 % of control

## O=C(O)C1C2OC(C(Br)C2Br)C1C(=O)O (stereo not drawn)
[1]
  T/C: 102 % of control
endpoint: mean survival time, dose: 100.0 mg/kg/injection, schedule: Q01DX009 (ip), vehicle: saline
  T/C: 104 % of control
